Experimental data taken from patent US12403121B2, “Anticancer rocaglamide derivatives” (priority 2018, dated 2025).

Legend:
[1] = system: Ewing sarcoma PDX; assay: Ewing sarcoma PDX model (NCH-EWS-2); format: in vivo, NSG mouse; settings: 3 mg/kg IP every other day, four weeks, vs vehicle
From the text: (§1) To generate PDX models, the Nationwide Children's Hospital Institutional Review Board approved the Human Subjects Protocol for the acquisition of surgically-removed tumor specimens from patients and informed patient consents were obtained. Shortly after resection, fresh tumor tissues with their histological types confirmed by a specialized pathologist were placed in Dulbecco's-modified Eagle (DME) medium (Invitrogen) and brought to the research laboratory. A piece of tumor fragment was implanted subcutaneously on the dorsal right flank area in an eight-to-ten week-old immunodeficient mouse under anesthesia. Tumors were allowed to grow until established, at which time the established PDX tumors were repeatedly passed from one animal to the next or cryopreserved. For Roc treatment, actively-growing PDXs for a Ewing sarcoma (NCH-EWS-2), an osteosarcoma (NCH—OS-7), and an alveolar rhabdomyosarcoma (NCH-ARMS-2) were excised and cut into 5-mm pieces. Each tumor piece was re-implanted into an NSG mouse and tumor growth was monitored. Once noted, the tumor sizes in the axial plane at its greatest dimension (L) and the orthogonal short dimension (S) were measured twice weekly using a Fowler Ultra-Cal Electronic Caliper. Approximated tumor volumes were calculated using the formula V=(L×S^2)/2. […]

[2] = system: TC32 Ewing sarcoma, 143B osteosarcoma, and RD rhabdomyosarcoma cells; assay: Western blots of treated sarcoma cells; format: cell-based
Experimental: FIGS. 7A-7C provide images showing DDR and Roc reduce multiple signaling proteins important for the growth and survival of sarcoma cells. Lysates prepared from TC32 Ewing sarcoma (A), 143B osteosarcoma (B), and RD rhabdomyosarcoma (C) cells were treated 1 and 2 days with the indicated concentrations of DDR or Roc and analyzed by Western blotting for the expression of various oncogenic driver proteins. GAPDH was used as a loading control.
Subconfluent cells were treated with the indicated doses of Roc or DDR for 24-72 hours and then harvested in cell lysis buffer (Cell Signaling Technology) containing 1 mM phenylmethylsufonylfluoride and protease inhibitor cocktail (Sigma-Aldrich). The protein content in cleared lysates was quantitated using the microBCA assay (ThermoFisher). Equal amounts of protein were run in sodium dodecyl sulfate-polyacrylamide gels and electrotransferred onto Immobilon-FL PVDF membranes (Millipore). The antibodies used were directed against: MDR1/ABCB1 (#13978), insulin-like growth factor-1 receptor β subunit (IGF-1Rβ; #9750), AKT (#9272), ERK1/2 (#4695), glyceraldehyde-3-phosphate dehydrogenase (GAPDH; #5174), caspase-3 (#9662), caspase-7 (#9492), cleaved caspase-7 (#9491), poly(ADP-ribose) polymerase (PARP; #9532), cleaved PARP (#5625), and phospho-histone H2A.X (pH2A.X[Ser′^39]; #9718; all from Cell Signaling Technology), NKX2.2 (sc-514161), LSD1 (sc-136174), and survivin (sc-17779; Santa Cruz Biotechnology), and FLI1 (ab15289) and cleaved caspase-3 (CC3; ab32042; Abeam). Protein bands were detected using IRDye® infrared fluorescent dye-labeled secondary antibodies and scanning on an Odyssey CLx imaging system (LI-COR Biosciences) using the appropriate fluorescent channel at a resolution of 84 μm.
To further examine the molecular mechanisms underlying the antiproliferative effects of rocaglamides, the inventors treated TC32 Ewing sarcoma, 143B osteosarcoma, and RD rhabdomyosarcoma cells with 1- or 2-IC50 dose of DDR or rocaglamide for 1-2 days followed by Western blotting for several known drivers of cell survival and proliferation. […] They also observed reduction of the IGF-1Rβ levels in rocaglamide-treated MPNST cells. In addition, Roc and DDR decreased the levels of AKT, ERKs, cyclin D1 and survivin in treated TC32, 143B, and RD cells (FIG. 7). Intriguingly, the oncogenic fusion protein EWS-FLI1, which acts as an aberrant transcription factor in Ewing sarcoma, was not affected in Roc- and DDR-treated TC32 Ewing sarcoma cells (FIG. 7A). […] However, the expression of lysine demethylase 1 (LSD1), which modulates EWS-FLI1 transcriptional activity (Sankar et al., Oncogene, 32:5089-5100 (2013)), and NKX2.2, an EWS-FL11-regulated gene necessary for oncogenic transformation (Smith et al., Cancer Cell, 9:405-416 (2006)), were diminished by these rocaglamides in TC32 cells (FIG. 7A).

[3] = system: ST8814-Luc MPNST xenografts; assay: Orthotopic ST8814-Luc MPNST cell line-derived xenograft, bioluminescence imaging and IHC; format: in vivo, NSG mice; settings: 4 weeks
Experimental: All animal work was performed according to the protocols approved by the Institutional Animal Care and Use Committee at Nationwide Children's Hospital. For animal dosing, Roc was formulated in 30% hydroxypropyl-β-cyclodextrin (HPβCD; CTD, Inc.). To generate the orthotopic MPNST CDX model, ST8814-Luc cells were injected into the sciatic nerves of NSG mice (NOD.Cg-Prkdc^scid Il2rg^imlWjl/SzJ; The Jackson Laboratory), followed by bioluminescence imaging (BLI) to monitor tumor growth. Burns and Chang, Methods Mol Biol., 1427:59-72 (2016). Mice bearing established ST8814-Luc tumors, as defined by increasing bioluminescence signals over at least two time points, were randomized into three groups (n=10 mice) and treated with the predetermined maximum tolerated dose (MTD) of Roc at 4 mg/kg by IP or 1.2 mg/kg by oral gavage, or the vehicle HPβCD every other day. Tumor growth was measured weekly by BLI. Following 4 weeks of treatment, tumors were harvested for histological analysis.
Sections from Roc or vehicle-treated MPNST tumors were prepared and stained with hematoxylin and eosin (H&E) or immunostained for p-histone H3(Ser^10) (pH3; ab32107, Abeam) or CC3 (#9664, Cell Signaling) as previously described. Burns et al., Cancer Res., 73:792-803 (2013).
To evaluate the in vivo activity of Roc, the inventors treated NSG mice bearing luciferase-expressing ST8814-Luc tumors implanted in the sciatic nerve with Roc at the predetermined MTD (4 mg/kg by IP or 1.2 mg/kg oral gavage), or IPβCD as the vehicle control every other day.

[4] = system: osteosarcoma PDX; assay: Osteosarcoma PDX model (NCH-OS-7); format: in vivo, NSG mouse; settings: 3 mg/kg IP every other day
From the text: as §1

[5] = system: rhabdomyosarcoma PDX; assay: Alveolar rhabdomyosarcoma PDX model (NCH-ARMS-2); format: in vivo, NSG mouse; settings: 3 mg/kg IP every other day
From the text: as §1

Question: For `COc1ccc([C@@]23Oc4cc(OC)cc(OC)c4[C@]2(O)[C@H](O)[C@H](C(=O)N(C)C)[C@H]3c2ccccc2)cc1` [Roc, rocaglamide], which tumor growth inhibition [1] is on record?
Answer: ~90%

Question: What about the “levels of the β subunit of IGF-1R” value ([2]; 1- or 2-IC50 dose, 1-2 days, all three sarcoma cell lines) of the same compound?
Answer: reliably reduced

Question: And the “levels of AKT, ERKs, cyclin D1 and survivin” value ([2]; TC32, 143B, and RD cells, 1- or 2-IC50 dose, 1-2 days)?
Answer: decreased

Question: What about the “EWS-FLI1 fusion protein level” value ([2]; TC32 Ewing sarcoma cells) of the same compound?
Answer: not affected

Question: What about the “expression of LSD1 and NKX2.2” value ([2]; TC32 cells) of the same compound?
Answer: diminished

Question: What about the “increase of tumor bioluminescence over four weeks” value ([3]; 1.2 mg/kg PO (oral gavage) every other day, vehicle ~17,000-fold) of the same compound?
Answer: ~470 fold

Question: What about the “reduction in tumor bioluminescence compared to controls” value ([3]; 1.2 mg/kg oral gavage every other day) of the same compound?
Answer: > 95%

Question: What about the “reduction in tumor luminescence compared to controls” value ([3]; 4 mg/kg IP every other day) of the same compound?
Answer: > 99%

Question: What about the “phospho-histone H3 labeling in tumors vs vehicle” value ([3]; IP- or orally-delivered, IHC) of the same compound?
Answer: much higher prevalence

Question: What about the “cleaved caspase-3 positive cells in tumors” value ([3]; Roc-treated tumors, IHC) of the same compound?
Answer: increased numbers

Question: And the “reduction of average tumor size compared to vehicle” value [4]?
Answer: ~80%

Question: And the “reduction of tumor growth” value [5]?
Answer: ~70%
